# Measured values as given in patent publication US20140213536A1, “MARKETING N-METHY[…] RELATED SUBSTANCES FOR USE IN TREATING/ LESSENING THE OCCURRENCE OF HOT FLASHES RELATED TO MENOPAUSE” (DSM IP ASSETS B.V., priority 2013, published 2014).
# Values joined by “and” are separate entries in the source; they are usually repeats but may differ in a detail not shown here. Equal entries are not always repeated.
# Assays:
# [1] = test system: ovariectomized female rats; assay: CGRP-induced hot flash / skin temperature in ovariectomized rats; format: in vivo, rat; details: for CGRP response of skin temperature above baseline (representative data, FIG. 3) / basal skin temperature (representative data, FIG. 3): NMS 0.48 or 18.5 ug/kg/d through diet, estradiol subcutaneous; for CGRP response of skin temperature above baseline (representative data, FIG. 3) / basal skin temperature (representative data, FIG. 3) / CGRP-induced hot flash response (repeated measures ANOVA, FIG. 9A): vs untreated controls; for CGRP-induced hot flash response (repeated measures ANOVA, FIG. 9A): seed supplying NMS-glucoside or NMS oxalate 18.5 or 55.5 μg/kg/d in diet, estradiol implant
# Excerpt: (§1) The animals arrived at approximately 60 days of age, and were placed on specific diets throughout the study (to approximately 160 days of age). The diets were formulated and provided by Dyets Inc. (Bethlehem, Pa.) and are based on a modified AIN-93G diet. These diets were fed ad libitum. Two weeks after arrival, at approximately 80 days of age, the animals were ovariectomized, allowed to recover for three weeks, and then placed on defined diets. In the first study, these diets contained 0, 0.08, 0.48, 3.2, 18.5, 185, or 3700 μg/kg/day of NMS dihydrochloride (FIG. 2). In the second, follow-up study, the diets contained no NMS (control), NMS oxalate (18.5 or 55.5 μg/kg/d), or milled Zanthoxylum seed in quantities that supplied NMS-glucoside at equivalent doses (18.5 or 55.5 μg/kg/d; FIG. 8). The NMS and NMS-glucoside content was verified using liquid chromatography with mass spectrometric detection. Extraction methods were similar to those of Yanase et al., 2010.
# (§2) All diets were fed for 2 weeks prior to the first behavioral assessment (open field). Positive control animals received a 5.0 mm subcutaneous silastic capsule implant packed with a crystalline 17β-estradiol and cholesterol mixture (25%, 0.058 inch inner diameter, 0.077 inch outer diameter; Dow Corning #508-006). Animals were then examined for locomotor activity (open field) and in two behavioral assays to assess mood (elevated plus maze and swim test) separated by two weeks in-between each assay. Two weeks after the final behavioral task (swim test), the animals were anesthetized and their physiological response to an experimentally-induced hot flash was tested. After the temperature monitoring was complete, tissue was harvested while the animals were still anesthetized.
# Ovariectomy. Two weeks after arrival, each animal was anesthetized via isoflurane inhalation and the dorsal mid-lumbar area was shaved and swabbed with surgical scrub, iodine and alcohol. The animal was then placed on a warm heat pad covered by a sterile cloth/pad in ventral recumbency with tail towards surgeon. A 2-3 cm dorsal midline skin incision was made halfway between the caudal edge of the ribcage and the base of the tail. A single transverse incision of 5.5-10 mm long was made into the muscle wall on both the right and left sides approximately ⅓ of the distance between the spinal cord and the ventral midline. The ovary and the oviduct were exteriorized through the muscle wall. A hemostat was clamped around the uterine vasculature between the oviduct and uterus and the uterine vasculature was ligated with dissolvable suture. Each ovary and part of the oviduct was removed with single cuts through the oviducts near the ovary. The hemostat was removed, and the remaining tissue replaced into the peritoneal cavity. The ovary on the other side was removed in a similar manner. The muscle incision is not sutured. Sterile wound clips were used to close the skin incision. Animals were monitored daily for signs of infection or morbidity.
# Hot Flash Studies. Animals were anesthetized with intraperitoneal co-injection of urethane (750 mg/kg) and α-chloralose (60 mg/kg). […] Thermistor probes (ADI Instruments, Colorado Springs, Colo.) were taped to the plantar surfaces of one hind foot. Forty minutes later, after anesthesia-induced hypothermia had stabilized, the basal skin temperature was recorded. Temperature monitoring then occurred at 5-second intervals throughout the remainder of the experiment. Calcitonin gene related peptide (CGRP; 10 μg/kg, i.v.) dissolved in saline was then injected via the tail vein. A maximum of eight animals were tested at the same time due to limitations on instrumental throughput. Cage mates were always tested together in order to avoid the stresses of single-housing and the potential stress hormone effects on body temperature. Therefore only four groups could be tested within any one given day.
# [2] = Body weight of ovariectomized rats on diets; format: in vivo, rat; details: for body weight throughout experiment (FIG. 6A): vs control diet / all other groups
# Excerpt: as §1, §2
# [3] = Circulating (plasma) estradiol in ovariectomized rats; format: in vivo, rat; details: dietary NMS; for plasma estradiol level (FIG. 5): first study, estradiol implant as positive control
# Excerpt: as §1, §2
# [4] = test system: ovariectomized female rats; assay: Uterine weight (uterotrophic effect) in ovariectomized rats; format: in vivo, rat; details: vs ovariectomized controls; for uterine weight (FIG. 6D): first study, after 80 days of supplementation; for uterine weight / uterine growth (FIG. 11A): follow-up study
# Excerpt: as §1, §2
# [5] = test system: ovariectomized female rats; assay: Forced swim test (depressive-like behaviors); format: in vivo, rat
# Procedure: Swim Test. Each rat was examined in the swim test for depressive-like behaviors. The test was performed over two consecutive days since it is a measure of an adaptive response to a perceived inescapable situation. The first test establishes to the animal that it is an inescapable situation, and the second test measures the animal's degree of passive coping derived from an unwillingness to maintain effort in an inescapable situation. Typical antidepressants limit the amount of passive coping (immobility) and promote the amount of active coping (swimming/climbing). On day one (0800 h to 1300 h), animals were acclimated to the test by placing them in a plexiglass cylindrical container (45 cm×20 cm) filled with 30 cm of fresh water (25° C.) for fifteen minutes, after which they were toweled dried and returned to their home cage. On day two (24 hrs later) the test was performed for a total swim time of five minutes, after which the rats were toweled dried and returned to their home cage. Both trials were recorded by a digital video camera was secured to the ceiling above the cylinders and connected to a laptop. Total time spent swimming and immobile was measured real-time by behavioral software (Anymaze, Stoelting Co.), and scored post hoc by a blinded experimenter from captured video. […] Immobility was defined as absence of any movement except for slight movements necessary for the animal to keep its head above water. Climbing was defined as rapid movement of the forelimbs that broke the surface of the water.
# 5-HT7 receptor [6] = molecular target: T1, 5-HT7 receptor (Homo sapiens, UniProt P34969); details: 5-HT7 vs other 5-HT receptors; cited from earlier work
# 5-HT7 receptor [7] = molecular target: T1, 5-HT7 receptor; details: FIG. 1B, cited from earlier work
# [8] = molecular target: serotonin reuptake transporter (SERT) (Homo sapiens, UniProt P31645); details: FIG. 1C, Powell et al., 2008, cited from earlier work
# [9] = test system: ovariectomized female rats; assay: Open field task (locomotion, anxiety-like behaviors); format: in vivo, rat
# Procedure: (§3) Open Field Task. Animals were tested in the open field to measure overall locomotor activity and basal anxiety state. In the open field test each rat is placed in a novel environment consisting of an arena measuring 100×100×40 cm. Rats were placed in the middle of the chamber and behavior in the open field was recorded for thirty minutes with a digital camera and measured by software (AnyMaze, Stoelting Co., Inc.). The following parameters were analyzed: a) total distance traveled; b) time in center; c) center entries; and d) number of fecal boli excreted.
# [10] = test system: ovariectomized female rats; assay: Behavioral measures of mood overall (open field, elevated plus maze, swim test); format: in vivo, rat
# Procedure: Animal Handling. Rats were handled each day for four days prior to behavioral analysis. This involved gently removing the animal from its cage and holding it in the experimenter's lap on a towel without restraint, allowing the animal to explore. This acclimatized the animal to handling by experimenters. All behavioral testing occurred in a room adjacent to the colony room, and the animals were acclimated to the test room overnight prior to testing.
# as §3
# Elevated Plus Maze Task. […] Each rat was placed in the central platform facing one of the open arms, and its behavior was recorded during a 5-min testing period with video capture software (AnyMaze). The amount of time spent on open and closed arms and the number of entries into open and closed arms were assessed with video analysis (AnyMaze). […]
# [11] = test system: ovariectomized female rats; assay: Elevated plus maze task (anxiety-like behaviors); format: in vivo, rat
# Procedure: Elevated Plus Maze Task. Animals were tested on the elevated plus maze to measure anxiety-related behavior. The plus-maze is elevated ˜85 cm above the floor and consisted of two open and two closed arms of the same size (50×10 cm). The closed arms were surrounded by walls 40 cm high, and the arms were constructed of black acrylic slabs that radiate from a central platform (10×10 cm) to form a plus sign (Lafayette Instruments, Lafayette, Ind.). Each rat was placed in the central platform facing one of the open arms, and its behavior was recorded during a 5-min testing period with video capture software (AnyMaze). The amount of time spent on open and closed arms and the number of entries into open and closed arms were assessed with video analysis (AnyMaze). In addition, the animals were scored live by the experimenter for time spent rearing, grooming, and number of stretch-attend postures and head dips over the edge of the open arm.
# T1 sequence (P34969 whole entry): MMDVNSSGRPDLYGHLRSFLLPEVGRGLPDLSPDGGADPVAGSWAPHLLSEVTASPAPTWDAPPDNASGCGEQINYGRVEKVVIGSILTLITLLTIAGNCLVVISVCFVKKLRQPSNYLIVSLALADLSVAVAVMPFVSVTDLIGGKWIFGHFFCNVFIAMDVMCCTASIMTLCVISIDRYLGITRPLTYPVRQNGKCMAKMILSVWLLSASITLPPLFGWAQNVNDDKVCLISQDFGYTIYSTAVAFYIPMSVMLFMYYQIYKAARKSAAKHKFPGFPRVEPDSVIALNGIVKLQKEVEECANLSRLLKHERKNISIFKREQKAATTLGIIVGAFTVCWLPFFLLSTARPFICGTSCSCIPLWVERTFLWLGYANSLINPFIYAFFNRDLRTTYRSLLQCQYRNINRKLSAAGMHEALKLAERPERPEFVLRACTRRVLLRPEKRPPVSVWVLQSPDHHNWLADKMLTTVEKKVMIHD
# serotonin reuptake transporter (SERT), sequence (P31645 whole entry, species assumed): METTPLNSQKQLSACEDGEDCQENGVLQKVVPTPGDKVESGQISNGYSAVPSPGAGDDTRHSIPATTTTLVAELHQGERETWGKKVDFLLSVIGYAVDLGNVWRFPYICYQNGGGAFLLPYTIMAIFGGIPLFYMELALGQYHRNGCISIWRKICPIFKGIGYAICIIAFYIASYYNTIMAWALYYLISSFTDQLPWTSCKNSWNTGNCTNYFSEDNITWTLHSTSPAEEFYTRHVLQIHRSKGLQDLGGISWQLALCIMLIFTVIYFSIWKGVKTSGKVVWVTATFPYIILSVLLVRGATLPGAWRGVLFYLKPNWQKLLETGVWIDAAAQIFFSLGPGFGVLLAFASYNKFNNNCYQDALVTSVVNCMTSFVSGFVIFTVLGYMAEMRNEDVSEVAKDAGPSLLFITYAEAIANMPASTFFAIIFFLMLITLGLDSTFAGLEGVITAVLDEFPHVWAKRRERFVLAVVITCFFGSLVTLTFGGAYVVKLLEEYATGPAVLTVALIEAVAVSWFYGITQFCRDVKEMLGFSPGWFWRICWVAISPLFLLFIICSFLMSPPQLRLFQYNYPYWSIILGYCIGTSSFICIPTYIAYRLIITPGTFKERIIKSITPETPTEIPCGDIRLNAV
smiles,measurement,setting,value
"C[C@]12CC[C@@H]3c4ccc(O)cc4CC[C@H]3[C@@H]1CC[C@@H]2O [estradiol, 17β-estradiol, reference compound]","CGRP response of skin temperature above baseline (representative data, FIG. 3)",[1]; first study,lowest responses to CGRP
same,"basal skin temperature (representative data, FIG. 3)",[1]; first study,lowest basal temperatures
same,"CGRP-induced hot flash response (repeated measures ANOVA, FIG. 9A)",[1]; follow-up study,blunted the CGRP-induced hot flash response
same,body weight throughout experiment (FIG. 6A),[2]; first study,significantly lower body weight
same,body weight throughout the experiment (FIG. 11B),"[2]; follow-up study, vs all other groups",significantly lower body weight
same,plasma estradiol level (FIG. 5),[3],highest levels of plasma estradiol
same,uterine weight (FIG. 6D),[4],significantly higher uterine weights
same,uterine weight / uterine growth (FIG. 11A),[4],significantly higher uterine weights
same,"time immobile, second session of forced swim test (FIG. 7A)",[5]; first study,spent less time immobile
"CNCCc1c[nH]c2ccc(O[C@@H]3O[C@H](CO)[C@@H](O)[C@H](O)[C@H]3O)cc12 [NMS-glucoside, N-methylserotonin 5-O-6-glucoside]",human equivalent dose (HED),"[1]; BSA calculation, follow-up study, NMS-glucoside in milled seed",150 to 540 µg/day
"CNCCc1c[nH]c2ccc(O)cc12 [NMS, N-methylserotonin]",binding preference among 5-HT receptors,5-HT7 receptor [6],binds preferentially to 5-HT7 receptors over other 5-HT receptors
same,human equivalent dose (HED) for thermoregulatory effects,"[1]; body surface area (BSA) method, first study",150 to 840 µg/day
same,basal skin temperature (FIG. 4),"[1]; first study, 18.5 ug/kg/d dietary NMS vs untreated controls",decreased basal skin temperature
same,"CGRP response of skin temperature above baseline (representative data, FIG. 3)",[1]; first study,lower CGRP responses
same,"basal skin temperature (representative data, FIG. 3)",[1]; first study,lower basal temperatures
same,"CGRP-induced hot flash response, baseline corrected (repeated measures ANOVA, FIG. 4)","[1]; first study, dietary NMS",blunted the CGRP-induced hot flash response
same,"CGRP-induced hot flash response (repeated measures ANOVA, FIG. 9A)",[1]; follow-up study,blunted the CGRP-induced hot flash response
same,"weight change as a percentage of original weight (FIG. 6B, C)","[2]; first study, throughout or at the end of the study",not different between dietary treatments
same,body weight throughout experiment (FIG. 6A),[2]; first study,did not alter body weight
same,overall weight change as a percentage of original weight at the end of the study (FIG. 11C),[2]; follow-up study,not different between dietary treatments
same,weight change as a percentage of original weight over time (FIG. 11B),"[2]; follow-up study, vs controls",different between controls and pepper supplemented or NMS supplemented groups
same,plasma estradiol level (FIG. 5),[3],increased plasma estradiol in a dose-dependent manner
same,non-uterine estradiol secretion,[3]; ovariectomized rats,tripled
same,concentration of maximal activation of the 5-HT7 receptor,5-HT7 receptor [7],50 to 100 nM
same,EC50,5-HT7 receptor [7]; read-out: EC50 of 5-HT7 receptor activation,~22 nM and 22 nM
same,fold lower affinity than Prozac at the serotonin reuptake transporter,[8],100 fold
same,IC50,[8]; read-out: IC50 of serotonin reuptake transporter inhibition,~500 nM
same,total distance traveled in open field (FIG. 7C),"[9]; first study, 30 minute test",no differences across groups
same,effect of treatment in the open field (FIG. 10A),[9]; follow-up study,No significant effects of treatment
same,behavioral measures of mood (FIG. 7),"[10]; first study, dietary NMS",did not alter behavioral measures of mood
same,behavioral measures of mood / mood-related behaviors (FIG. 10),[10]; follow-up study,did not alter behavioral measures of mood
same,uterine weight (FIG. 6D),[4],did not alter uterine weight
same,uterine weight / uterine growth (FIG. 11A),[4],did not alter uterine weight
same,"time spent climbing, second session of forced swim test (FIG. 7B)",[5]; first study,no significant differences amongst groups
same,effect of treatment in the forced swim test (FIG. 10C),[5]; follow-up study,No significant effects of treatment
same,time spent in the open arms of elevated plus maze (FIG. 7D),[11]; first study,no differences amongst groups
same,effect of treatment in the elevated plus maze (FIG. 10B),[11]; follow-up study,No significant effects of treatment
